Experiments:
OVCAR3 ovarian tumors = assay: Subcutaneous OVCAR3 ovarian tumor xenograft in SCID mice (Example 7); format: in vivo, mouse; conditions: 60 mg/kg; study end (day 29); FIG. 2
Method: The experiment was conducted essentially as described above in Example 3, except that the tumors of GFP-transfected H460 cells were replaced with OVCAR3 ovarian tumors. […] FIG. 2 is a Kruskal-Wallis box plot. The central bar within each box indicates the median value for the group, the limits of the various boxes and whiskers indicate group quartiles within the total distribution of values determined in this study.

[1] = tested on: MDA-MB-435-GFP breast tumors; assay: Orthotopically implanted human MDA-MB-435-GFP breast tumor mouse xenograft (Example 5); format: in vivo; conditions: 33 days of treatment; FIG. 1; dose not stated
Method: The experiment was conducted essentially as described above in Example 3, except that the tumors of GFP-transfected H-460 cells were replaced with MDA-MB-435-GFP breast tumors, with surgical orthotopic implantation directly into breast tissue of female CD-1 nude animals. The number of animals in each group was increased to 15. […] (See, e.g., Ross et al (2000) Nat Genet 24:227-235 and Ellison et al. Mol Pathol. (2002) 55:294-299.)
In the present MDA-MB-435-GFP breast cancer orthotopic study, administration of compound A was initiated 21 days after tumor fragment implantation to the mammary fat pad of female nude mice, at time at which the volume of primary tumors reached ˜150 mm^3. Taxotere, a positive chemotherapeutic agent control, was administered i.v. once weekly (15 mg/kg). After mean tumor volume in the vehicle control group exceeded 1 cm^3, animals were sacrificed (33 days of treatment) and primary tumors were excised from all animals and weighed.

[2] = Complete blood counts and reticulocyte analysis in H-460 xenograft mice (Example 1); format: in vivo, mouse; conditions: study end
Method: Sizes of the primary tumors were measured through the skin with calipers once per week. Tumor volumes were calculated by the formula V═(W^2*L)/2. Body weight of the mice in each group was also measured once per week during the experimental period. All animals were sacrificed following thirty-two days of treatment. Primary tumors were excised and weighed on an electronic balance. Blood samples were taken during terminal sacrifice and placed in microhematocrit tubes containing EDTA. Complete Blood Counts (CBC) and reticulocyte analysis were performed with the Cell Dyn 3700 analyzer (Abbott Diagnostics), as described by the manufacturer.

[3] = tested on: REDD1/RTP801 gene expression; assay: REDD1/RTP801 gene expression in Kelly neuroblastoma cells; format: cell-based; conditions: 20 μM, vs DMSO control
Method: (§1) To identify compounds useful in the methods of the present invention, the following studies were performed. The effect of compounds of the present invention on expression of various genes associated with anti-tumor activity (e.g., genes having anti-proliferative activity, genes having pro-apoptotic activity, genes having anti-tumor activity, etc.). In these experiments, the effect of compounds on BNIP3, BNIP3L, NDRG1, CDKN1C, and REDD1/RTP801 gene expression in various types of cultured tumor cells line was examined, including Hep3B cells (human hepatocellular carcinoma), Kelly neuroblastoma cells, and MCF7 cells (human breast cancer)
(§2) The effects of various compounds of the present invention on the expression of genes associated with tumor growth and progression were examined in Kelly neuroblastoma cells as follows. Kelly neuroblastoma cells were grown in RPMI media. […]
(§3) RNA was isolated from the Kelly neuroblastoma cells using a commercial kit and used for the preparation of cDNA. BNIP3, CDKN1C, and 18S RNA levels were measured using commercial kits (18S, Applied Biosystems cat#4319413E); BNIP3, Applied Biosystems cat#HS00969293 MH). […] Kelly cell NDRG1 and BNIP3L mRNA levels were measured by Affymetrix microarray in a separate study. […]

BNIP3L gene expression = BNIP3L gene expression in Kelly neuroblastoma cells (Affymetrix microarray); format: cell-based; conditions: 20 μM, 6 hours, vs 0.5% DMSO control
Method: as §1, §2, §3

## O=C(O)CNC(=O)c1nc(Cl)c2ccccc2c1O [Compound A, [(1-Chloro-4-hydroxy-isoquinoline-3-carbonyl)-amino]-acetic acid]
OVCAR3 ovarian tumors
  reduction of median tumor volume compared to vehicle-treated control: 26%
[1]
  reduction of mean tumor volumes compared to vehicle control: approximately 20%

## C[C@H](NC(=O)c1ncc2cc(Oc3ccccc3)ccc2c1O)C(=O)O [Compound B, (S)-2-[(4-Hydroxy-7-phenoxy-isoquinoline-3-carbonyl)-amino]-propionic acid]
[2]; 6 mg/kg PO
  Abs Retic (reticulocyte count): 653
  Baso %: 6.35%
  Baso (basophils): 1840 µL⁻¹
  EOS %: 0.49%
  Eos (eosinophil count): 80 µL⁻¹
  HCT (hematocrit): 37.7%
  HGB (hemoglobin): 12.7 g/dL
  IRF (immature RET fraction): 0.64
  Lymph %: 18.3%
  Lymph (lymphocytes): 4700 µL⁻¹
  MCH (mean corpuscular hemoglobin): 14.6 pg
  MCHC (MCH concentration): 33.8 g/dL
  MCV (mean corpuscular volume): 43.2 fL
  Mono %: 7.61%
  Mono (monocytes): 2370 µL⁻¹
  Neut %: 67.5%
  Neut (neutrophils): 18400 µL⁻¹
  PLAT (platelets): 1.536e+06 µL⁻¹
  RBC (red blood cells): 8.71e+06 µL⁻¹
  RDW (RBC distribution width): 21.4%
  RET (reticulocytes): 7.5%
  WBC (white blood cells): 27300 µL⁻¹
[2]; 20 mg/kg PO
  Abs Retic (reticulocyte count): 552
  Baso %: 4.52%
  Baso (basophils): 780 µL⁻¹
  EOS %: 0.44%
  Eos (eosinophil count): 70 µL⁻¹
  HCT (hematocrit): 37.7%
  HGB (hemoglobin): 12.7 g/dL
  IRF (immature RET fraction): 0.56
  Lymph %: 14.6%
  Lymph (lymphocytes): 2700 µL⁻¹
  MCH (mean corpuscular hemoglobin): 14.5 pg
  MCHC (MCH concentration): 33.7 g/dL
  MCV (mean corpuscular volume): 43.0 fL
  Mono %: 4.88%
  Mono (monocytes): 850 µL⁻¹
  Neut %: 75.6%
  Neut (neutrophils): 16500 µL⁻¹
  PLAT (platelets): 1.767e+06 µL⁻¹
  RBC (red blood cells): 8.78e+06 µL⁻¹
  RDW (RBC distribution width): 21.7%
  RET (reticulocytes): 6.3%
  WBC (white blood cells): 20800 µL⁻¹

## COc1ccc(Oc2ccc3c(O)c(C(=O)NCC(=O)O)ncc3c2)cc1 [Compound C, {[4-Hydroxy-7-(4-methoxy-phenoxy)-isoquinoline-3-carbonyl]-amino}-acetic acid]
[2]; 20 mg/kg PO
  Abs Retic (reticulocyte count): 457
  Baso %: 1.47%
  Baso (basophils): 150 µL⁻¹
  EOS %: 0.47%
  Eos (eosinophil count): 40 µL⁻¹
  HCT (hematocrit): 41.1%
  HGB (hemoglobin): 14.0 g/dL
  IRF (immature RET fraction): 0.56
  Lymph %: 25.2%
  Lymph (lymphocytes): 3000 µL⁻¹
  MCH (mean corpuscular hemoglobin): 14.9 pg
  MCHC (MCH concentration): 34.1 g/dL
  MCV (mean corpuscular volume): 43.8 fL
  Mono %: 2.67%
  Mono (monocytes): 320 µL⁻¹
  Neut %: 70.2%
  Neut (neutrophils): 11400 µL⁻¹
  PLAT (platelets): 1.707e+06 µL⁻¹
  RBC (red blood cells): 9.36e+06 µL⁻¹
  RDW (RBC distribution width): 22.3%
  RET (reticulocytes): 4.9%
  WBC (white blood cells): 14900 µL⁻¹
[3]
  fold-increase in REDD1/RTP801 mRNA expression: 3.6 fold
BNIP3L gene expression
  fold-increase in BNIP3L mRNA expression: 5.9 fold

## Cc1nc(C(=O)NCC(=O)O)c(O)c2ccc(Oc3ccccc3)cc12 [Compound D, [(4-Hydroxy-1-methyl-7-phenoxy-isoquinoline-3-carbonyl)-amino]-acetic acid]
OVCAR3 ovarian tumors
  reduction of median tumor volume compared to vehicle-treated control: 5%

Source: patent US8530404B2, “Compounds and methods for treatment of cancer” (FibroGen, Inc., priority 2005, dated 2013)
